Key:
[1] = tested on: “Chung Model” of neuropathic pain; assay: “Chung Model” of neuropathic pain (paw withdrawal threshold); format: in vivo, rats; details: for blockade of CR845 effect by kappa antagonist into injured paw: intraplantar 0.2 mg, 15 min prior to CR845 1 mg/kg, rats
Description: FIG. 1: Efficacy of CR845 in “Chung Model” of neuropathic pain is blocked with Peripheral (Intrapaw) administration of a kappa antagonist (norBNI) in rats. *** denotes p<0.001 compared to vehicle-treated controls (two-way ANOVA). Vehicle or Nor-BNI was administered intraplantarly (0.2 mg) 15 min prior to CR845. Injection (1 mg/kg). N=6 male rats/group, mean±SEM.
The peripheral mechanism of action of CR845 is supported preclinically by both biochemical in vitro assays and in vivo functional pharmacological studies. […] Moreover, in standard preclinical pain models, such as the “Chung Model” of neuropathic pain, the analgesic action of CR845 was blocked with kappa opioid receptor antagonists administered directly to the local site of injury, indicating a peripheral site of action for CR845 (FIG. 1). In the “Chung Model”, neuropathic pain is induced experimentally by ligating spinal nerves mediating sensation for a hind limb. […] Sets of different thickness filaments are used to test sensitivity, each of which is designed to produce a given force (in grams) upon bending after contact. By testing with these filaments, the minimum force to evoke a withdrawal response defines the paw withdrawal threshold. The nerve injury produces a marked reduction in paw withdrawal thresholds (increased sensitivity to force) in response to probing with the filaments.

[2] = tested on: pro-inflammatory mediators; assay: production and release of pro-inflammatory mediators; details: preclinical
Description: (§1) The analgesic effect of CR845 was recordable within 15 minutes post-administration and lasted for up to 18 hours following single-dose administration.

[3] = tested on: patients undergoing laparoscopic hysterectomy; details: human, in vivo
human subjects = details: in vivo
[4] = pharmacokinetic studies, drug in extracted brain tissue; format: in vivo; details: animals, analgesic and supra-analgesic doses
[5] = tested on: patients following bunionectomy surgery; details: human, in vivo
[6] = tested on: acute and chronic visceral, inflammatory and neuropathic pain; assay: standard preclinical pain models; format: in vivo
Description: as §1

## Oc1ccc2c3c1O[C@H]1c4[nH]c5c(c4C[C@@]4(O)[C@@H](C2)N(CC2CC2)CC[C@]314)C[C@@]1(O)[C@H]2Cc3ccc(O)c4c3[C@@]1(CCN2CC1CC1)[C@H]5O4 [nor-BNI, nor-binaltorphamine]
[1]
  blockade of CR845 effect by kappa antagonist into injured paw: significantly reduces the effect of CR845
[1]; listed as norBNI
  blockade of CR845 effect by kappa antagonist into injured paw: blocked

## CC(C)C[C@@H](NC(=O)[C@@H](Cc1ccccc1)NC(=O)[C@H](N)Cc1ccccc1)C(=O)N[C@H](CCCCN)C(=O)N1CCC(N)(C(=O)O)CC1 [CR845, D-Phe-D-Phe-D-Leu-D-Lys-[ω(4-aminopiperidine-4-carboxylic acid)]-OH]
[2]
  production and release of pro-inflammatory mediators: decreased the production and release of pro-inflammatory mediators
[3]
  PID for 0-4, 0-8 and 0-16 hour time intervals vs Placebo/Placebo: statistically significant improvements
  Responders in global evaluation of study medication vs placebo: higher percentage of patients
  SPID over 0-8, 0-12 and 0-16 time periods vs Placebo/Placebo: reduced pain intensity compared to the Placebo/Placebo group in a statistically significant manner
  greater reduction in pain intensity at 24 hours vs Placebo/Placebo: approximately 60%
  improvement in mean SPID values 0-4 hour vs Placebo/Placebo: 3.5 fold
  mean TOTPAR0-2 (pain relief within first 2 hours) vs Placebo/Placebo: statistically superior pain relief
  mean TOTPAR 0-12 hour interval vs Placebo/Placebo: reached statistical significance
  mean TOTPAR scores across all intervals vs Placebo/Placebo: numerically superior
  pain intensity for 0-8 and 0-16 hour time intervals vs Placebo/Placebo: statistically significant decreases in pain intensity
  patients who experienced nausea: 26.1%
  patients who experienced vomiting: 1.7%
  pruritus reported vs placebo: less pruritus
  reduction of incidence of nausea vs placebo: approximately 50%
  reduction of incidence of vomiting vs placebo: ~80%
  reported pain relief (TOTPAR) for 0-4, 2-4 and 0-8 hour time periods: statistically significant improvements in reported pain relief
[3]; iv
  mean PID from baseline at each time interval vs Placebo/Placebo: numerically superior
[3]; iv, 0.04 mg/kg
  blood sodium increase (hypernatremia), share of total patients: 14%
Human subjects
  drug-related respiratory depression: no evidence of drug-related respiratory depression
[4]
  concentration of drug in extracted brain tissue: no measurable concentrations of drug in extracted brain tissue
[5]
  SPID0-36 vs placebo: statistically significant
  SPID0-48 vs placebo: statistically significant
  SPID scores 0-24, 0-36, 0-48 vs placebo: Numerical improvements in SPID scores
  acute psychiatric side effects: no evidence of acute psychiatric side effects
  cases of somnolence reported: seven
  mean PID from baseline at each time interval across 48 hours vs placebo: numerically superior
  mean plasma sodium concentration vs normal range: not outside the normal physiological range
  most frequent TEAEs (greater than 10%): transient facial tingling and somnolence
  pain intensity differences 0-12 hour time interval vs placebo: Statistically significant reductions in pain intensity differences
  pain intensity differences 0-36 hour time interval vs placebo: Statistically significant reductions in pain intensity differences
  reduction of incidence of nausea vs placebo: 60%
  reduction of incidence of vomiting vs placebo: 80%
  rise of mean plasma sodium concentration from baseline: approximately 3%
[5]; iv, 0.005 mg/kg
  SPID0-24 vs placebo: statistically significant reduction in pain intensity compared to placebo
[1]; I.V. CR845 1 mg/kg, male rats
  paw withdrawal threshold (neuropathic pain): reduces this neuropathic pain as demonstrated by a subsequent increase in the withdrawal threshold
[6]; following single-dose administration
  duration of analgesic effect: up to 18 hours
[6]; preclinical pain models
  onset of analgesic effect post-administration: ≤ 15 min
[6]; standard preclinical pain models
  attenuation of pain in preclinical pain models: successfully attenuated acute and chronic visceral, inflammatory and neuropathic pain in a dose-dependent manner

— patent publication US20160250277A1, “[…] OPIOID RECEPTOR AGONISTS FOR PREVENTING, INHIBITING OR TREATING NAUSEA AND VOMITING” (CARA THERAPEUTICS, INC., priority 2013, published 2016)
